Tests used:
[1] = molecular target: PTGER2 (EP2) (Homo sapiens (Human), UniProt P43116); experiment: hEP2 b-arrestin assay (PathHunter HEK 293 PTGER2 b-arrestin cells); type: cell-based; conditions: hEP2 b-arrestin assay (values without asterisk)
Summary of the method: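 Readout is β-galactosidase complementation luminescence, expressed as percent of DMSO control (duplicates). PathHunter HEK293 EP2/β-arrestin 2 cells, grown 24 h, received compound for 15 min at 37 °C before a 120 min challenge with PGE2 at 5 μM final, followed by 1 h detection at room temperature.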

[2] = molecular target: PTRGER4 (EP4) (Homo sapiens (Human), UniProt P35408); experiment: hEP4 b-arrestin assay (PathHunter HEK 293 PTGER4 b-arrestin cells); type: cell-based; conditions: hEP4 b-arrestin assay (values without asterisk)
PTRGER4 (EP4), sequence (P35408 whole entry, looked up, the tested form may be a part): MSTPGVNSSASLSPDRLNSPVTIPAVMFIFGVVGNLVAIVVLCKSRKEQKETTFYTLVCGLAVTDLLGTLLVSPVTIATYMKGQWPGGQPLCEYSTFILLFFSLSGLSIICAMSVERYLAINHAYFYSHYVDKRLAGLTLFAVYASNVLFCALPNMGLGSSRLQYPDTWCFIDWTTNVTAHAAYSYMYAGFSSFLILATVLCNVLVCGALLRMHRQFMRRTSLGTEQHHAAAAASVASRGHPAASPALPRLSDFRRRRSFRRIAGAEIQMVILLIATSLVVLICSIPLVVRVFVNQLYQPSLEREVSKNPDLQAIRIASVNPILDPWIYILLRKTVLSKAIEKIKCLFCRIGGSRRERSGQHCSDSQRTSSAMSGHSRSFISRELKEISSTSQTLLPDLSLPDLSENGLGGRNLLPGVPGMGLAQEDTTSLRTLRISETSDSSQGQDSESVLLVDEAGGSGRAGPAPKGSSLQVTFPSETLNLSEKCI
Summary of the method: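 Antagonist mode: compound is given 15 min at 37 °C, then 20 nM (final) PGE2 for 120 min, in HEK293 cells stably expressing EP4 fused to ProLink and β-arrestin 2 fused to EA. Recruitment read as β-gal luminescence after 1 h reagent at room temperature, as percent of DMSO control.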

PTGER2 (EP2), sequence (P43116 whole entry): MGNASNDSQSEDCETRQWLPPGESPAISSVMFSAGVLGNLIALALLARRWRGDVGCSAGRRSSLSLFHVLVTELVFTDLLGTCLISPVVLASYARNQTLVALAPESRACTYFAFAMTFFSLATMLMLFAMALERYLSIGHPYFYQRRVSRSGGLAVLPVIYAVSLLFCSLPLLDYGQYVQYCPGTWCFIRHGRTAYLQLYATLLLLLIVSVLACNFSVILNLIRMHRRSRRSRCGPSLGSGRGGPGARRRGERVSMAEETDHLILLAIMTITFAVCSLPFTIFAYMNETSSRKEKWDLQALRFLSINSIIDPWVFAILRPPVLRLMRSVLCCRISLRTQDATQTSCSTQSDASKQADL

Row | SMILES | IC50 [1] [nM] | IC50 [2] [nM]
1 | CCOc1cc(-c2cc(NCCn3c(C)cc4c(Cl)cc(Cl)c(F)c43)ncn2)sc1C(=O)O [Example 868, 5-{6-[2-(4,6-Dichloro-7-fluoro-2-methyl-indol-1-yl)-ethylamino]-pyrimidin-4-yl}-3-ethoxy-thiophene-2-carboxylic acid] | 1 | 7
2 | CCOc1cc(-c2cc(NCCn3c(C#N)cc4c(OC)cccc43)ncn2)ccc1OCC(=O)O [Example 870, (4-{6-[2-(2-Cyano-4-methoxy-indol-1-yl)-ethylamino]-pyrimidin-4-yl}-2-ethoxy-phenoxy)-acetic acid] | 8 | 12
3 | CCOc1cc(-c2cc(NCCn3c(C)cc4c(OC)cc(Cl)cc43)ncn2)sc1C(=O)O [Example 871, 5-{6-[2-(6-Chloro-4-methoxy-2-methyl-indol-1-yl)-ethylamino]-pyrimidin-4-yl}-3-ethoxy-thiophene-2-carboxylic acid] | 2 | 16
4 | CCCCOc1cc(-c2cc(NCCn3c(C#N)cc4c(OC)ccc(F)c43)ncn2)ccc1C(=O)O [Example 872, 2-Butoxy-4-{6-[2-(2-cyano-7-fluoro-4-methoxy-indol-1-yl)-ethylamino]-pyrimidin-4-yl}-benzoic acid] | 12 | 18
5 | COc1ccc(F)c2c1cc(C)n2CCNc1cc(-c2ccc(O)c(OC(F)(F)F)c2)ncn1 [Example 874, 4-{6-[2-(7-Fluoro-4-methoxy-2-methyl-indol-1-yl)-ethylamino]-pyrimidin-4-yl}-2-trifluoromethoxy-phenol] | 4 | 19
6 | CCOc1cc(-c2cc(NCCn3c(C)c(F)c4ccccc43)ncn2)sc1C(=O)O [Example 875, 3-Ethoxy-5-{6-[2-(3-fluoro-2-methyl-indol-1-yl)-ethylamino]-pyrimidin-4-yl}-thiophene-2-carboxylic acid] | 4 | 26
7 | CCOc1cc(-c2cc(NCCn3c(C)cc4c(C)ccc(F)c43)ncn2)ccc1NCC(=O)O [Example 877, (2-Ethoxy-4-{6-[2-(7-fluoro-2,4-dimethyl-indol-1-yl)-ethylamino]-pyrimidin-4-yl}-phenylamino)-acetic acid] | 5 | 34
8 | CCCCOc1cc(-c2cc(NCCn3c(C)cc4c(OC)cc(F)c(F)c43)ncn2)ccc1C(=O)O [Example 878, 2-Butoxy-4-{6-[2-(6,7-difluoro-4-methoxy-2-methyl-indol-1-yl)-ethylamino]-pyrimidin-4-yl}-benzoic acid] | 1 | 22
9 | CCOc1cc(-c2cc(NCCn3c(C)cc4c(OC)cccc43)ncn2)ccc1-c1noc(=O)[nH]1 [Example 881, 3-(2-Ethoxy-4-{6-[2-(4-methoxy-2-methyl-indol-1-yl)-ethylamino]-pyrimidin-4-yl}-phenyl)-[1,2,4]oxadiazol-5(4H)-one] | 5 | 41
10 | CCOc1cc(-c2cc(NCCn3c(C)cc4c(OC)cc(F)cc43)ncn2)ccc1NCC(=O)O [Example 882, (2-Ethoxy-4-{6-[2-(6-fluoro-4-methoxy-2-methyl-indol-1-yl)-ethylamino]-pyrimidin-4-yl}-phenylamino)-acetic acid] | 11 | 55
11 | CCCCOc1cc(-c2cc(NCCn3c(C)cc4c(OC)cc(Cl)c(F)c43)ncn2)ccc1C(=O)O [Example 884, 2-Butoxy-4-{6-[2-(6-chloro-7-fluoro-4-methoxy-2-methyl-indol-1-yl)-ethylamino]-pyrimidin-4-yl}benzoic acid] | 10 | 84
12 | CCOc1cc(-c2cc(NCCn3c(C)cc4c(OC)c(F)cc(Cl)c43)ncn2)sc1C(=O)O [Example 885, 5-{6-[2-(7-Chloro-5-fluoro-4-methoxy-2-methyl-indol-1-yl)-ethylamino]-pyrimidin-4-yl}-3-ethoxy-thiophene-2-carboxylic acid] | 40 | 89
13 | COc1cc(-c2cc(NCCn3c(C)cc4c(OC)ccc(F)c43)ncn2)ccc1CC(=O)O [Example 886, (4-{6-[2-(7-Fluoro-4-methoxy-2-methyl-indol-1-yl)-ethylamino]-pyrimidin-4-yl}-2-methoxy-phenyl)-acetic acid] | 42 | 125
14 | COc1ccc(F)c2c1cc(C#N)n2CCNc1cc(-c2ccc(C(F)(F)C(=O)O)cc2)ncn1 [Example 887, (4-{6-[2-(2-Cyano-7-fluoro-4-methoxy-indol-1-yl)-ethylamino]-pyrimidin-4-yl}-phenyl)-difluoro-acetic acid] | 89 | 177
15 | CCOc1cc(-c2cc(NCCn3c(C#N)cc4c(Cl)cc(Cl)cc43)ncn2)sc1C(=O)O [Example 889, 5-{6-[2-(4,6-Dichloro-2-cyano-indol-1-yl)-ethylamino]-pyrimidin-4-yl}-3-ethoxy-thiophene-2-carboxylic acid] | 1 | 35

Continued, values first:

Row | IC50 [1] [nM] | IC50 [2] [nM] | SMILES
16 | 8 | 5 | COc1ccc(F)c2c1cc(C#N)n2CCNc1cc(-c2ccc(O)c(OC(F)(F)F)c2)ncn1 [Example 866, 7-Fluoro-1-{2-[6-(4-hydroxy-3-trifluoromethoxy-phenyl)-pyrimidin-4-ylamino]-ethyl}-4-methoxy-1H-indole-2-carbonitrile]
17 | 8 | 6 | COc1ccc(F)c2c1cc(C#N)n2CCNc1cc(-c2ccc(O)c(Cl)c2)ncn1 [Example 867, 1-{2-[6-(3-Chloro-4-hydroxy-phenyl)-pyrimidin-4-ylamino]-ethyl}-7-fluoro-4-methoxy-1H-indole-2-carbonitrile]
18 | 2 | 8 | COc1cc(Cl)cc2c1cc(C)n2CCNc1cc(-c2cc(OC(C)C)c(C(=O)O)s2)ncn1 [Example 869, 5-{6-[2-(6-Chloro-4-methoxy-2-methyl-indol-1-yl)-ethylamino]-pyrimidin-4-yl}-3-isopropoxy-thiophene-2-carboxylic acid]
19 | 77 | 18 | CCOc1cc(-c2cc(NCCn3c(C#N)cc4c(OC)ccc(F)c43)ncn2)ccc1CC(=O)O [Example 873, (4-{6-[2-(2-Cyano-7-fluoro-4-methoxy-indol-1-yl)-ethylamino]-pyrimidin-4-yl}-2-ethoxy-phenyl)-acetic acid]
20 | 4 | 32 | CCOc1cc(-c2cc(NCCn3c(C#N)c(F)c4ccccc43)ncn2)sc1C(=O)O [Example 876, 5-{6-[2-(2-Cyano-3-fluoro-indol-1-yl)-ethylamino]-pyrimidin-4-yl}-3-ethoxy-thiophene-2-carboxylic acid]
21 | 4 | 36 | Cc1cccc2c1cc(C)n2CCNc1cc(-c2cc(OC(C)C)c(C(=O)O)s2)ncn1 [Example 879, 5-{6-[2-(2,4-Dimethyl-indol-1-yl)-ethylamino]-pyrimidin-4-yl}-3-isopropoxy-thiophene-2-carboxylic acid]
22 | 7 | 63 | CCOc1cc(-c2cc(NCCn3c(C)cc4c(Cl)c(F)cc(Cl)c43)ncn2)sc1C(=O)O [Example 883, 5-{6-[2-(4,7-Dichloro-5-fluoro-2-methyl-indol-1-yl)-ethylamino]-pyrimidin-4-yl}-3-ethoxy-thiophene-2-carboxylic acid]
23 | 41 | 472 | COc1ccc(F)c2c1cc(C)n2CCNc1cc(-c2ccc(C(=O)O)c(C#N)c2)ncn1 [Example 888, 2-Cyano-4-{6-[2-(7-fluoro-4-methoxy-2-methyl-indol-1-yl)-ethylamino]-pyrimidin-4-yl}-benzoic acid]
